Test [1] has as its system MOLT-4. Briefly: Compound was tested for in vitro inhibitory activity against HIV replication in MOLT-4 cells. It is filed as functional, cell-based. As to conditions: Homo sapiens.
The target in test [2] is Human immunodeficiency virus type 1 protease (Human immunodeficiency virus 1, UniProt Q72874). Briefly: Inhibitory activity against HIV-1 protease. Particulars: read-out: Ki app.

One may read the IC50 as the concentration at which inhibition is half-maximal.

Regarding `CC(C)c1c[nH]c([C@H](Cc2ccccc2)C[C@H](O)[C@H](Cc2ccccc2)NC(=O)[C@@H](NC(=O)OCc2ccccc2)[C@H](C)O)n1`, 11 nM corresponded to half-maximal inhibition in test [1] (IC50). Moreover, the Ki in test [2] came out at 1.4 nM. On to `CNC(=O)c1c[nH]c([C@H](Cc2ccccc2)C[C@H](O)[C@H](Cc2ccccc2)NC(=O)OC(C)(C)C)n1`, for which, in test [2], the Ki stood at 3700 nM. As to `CC(=O)N[C@@H](C(=O)N[C@@H](Cc1ccccc1)[C@@H](O)C[C@@H](Cc1ccccc1)c1nc(C(C)C)c[nH]1)C(C)C`, the Ki in test [2] is 150 nM. On to `CC(C)(C)OC(=O)N[C@@H](Cc1ccccc1)[C@@H](O)C[C@@H](Cc1ccccc1)c1nccs1`, for which, in test [2], the Ki is 3000 nM. Turning to `CC(C)(C)OC(=O)N[C@@H](Cc1ccccc1)[C@@H](O)C[C@@H](Cc1ccccc1)c1nc(C(=O)C2CCCC2)c[nH]1`, the Ki in test [2] worked out at 150 nM.

`CCC(O)c1cnc([C@H](Cc2ccccc2)C[C@H](O)[C@H](Cc2ccccc2)NC(=O)OC(C)(C)C)s1` (some centres not stated): the Ki in test [2] came out at 720 nM. For the molecule `CC(C)c1cnc([C@H](Cc2ccccc2)C[C@H](O)[C@H](Cc2ccccc2)NC(=O)[C@@H](NC(=O)OCc2ccccc2)C(C)C)[nH]1`, the midpoint of inhibition in test [1], the IC50, lay at 100 nM. Besides, in test [2], the Ki came to 0.6 nM. As for `CC(=O)N[C@H](C(=O)N[C@@H](Cc1ccccc1)[C@@H](O)C[C@@H](Cc1ccccc1)c1ncc(C(C)C)[nH]1)C(C)C`, the IC50 in test [1] was 40 nM. Also, the Ki in test [2] worked out at 1 nM. `CC(C)OC(=O)N[C@H](C(=O)N[C@@H](Cc1ccccc1)[C@@H](O)C[C@@H](Cc1ccccc1)c1ncc(C(C)C)[nH]1)C(C)C` gave an IC50 in test [1] of 134 nM. In addition, in test [2], the Ki came to 7.9 nM. Turning to `CC(C)c1cnc([C@H](Cc2ccccc2)C[C@H](O)[C@H](Cc2ccccc2)NC(=O)[C@@H](NC(=O)OC(C)(C)C)C(C)C)[nH]1`, the Ki in test [2] stood at 300 nM.

Turning to `CC(C)(C)OC(=O)N[C@@H](Cc1ccccc1)[C@@H](O)C[C@@H](Cc1ccccc1)c1ncc(C(=O)c2ccccc2)[nH]1`, the Ki in test [2] was found to be 7800 nM. `CCOC(=O)N[C@H](C(=O)N[C@@H](Cc1ccccc1)[C@@H](O)C[C@@H](Cc1ccccc1)c1nc(C(C)C)c[nH]1)C(C)C` came in with an IC50 in test [1] of 77 nM. Moreover, in test [2], the Ki worked out at 2.8 nM. Regarding `CCCCc1cnc([C@H](Cc2ccccc2)C[C@H](O)[C@H](Cc2ccccc2)NC(=O)OC(C)(C)C)s1`, in test [2], the Ki worked out at 26000 nM.

In the case of `CC(C)(C)OC(=O)N[C@@H](Cc1ccccc1)[C@@H](O)C[C@@H](Cc1ccccc1)c1nc[nH]n1`, the Ki in test [2] stood at 5800 nM.

The molecule `COC(=O)N[C@H](C(=O)N[C@@H](Cc1ccccc1)[C@@H](O)C[C@@H](Cc1ccccc1)c1nc(C(C)C)c[nH]1)C(C)C` returned an IC50 in test [1] of 50 nM. Moreover, the Ki in test [2] amounted to 2.1 nM. On to `COC(=O)c1cnc([C@H](Cc2ccccc2)C[C@H](O)[C@H](Cc2ccccc2)NC(=O)OC(C)(C)C)[nH]1`, for which the Ki in test [2] came out at 1800 nM. Turning to `CCC(C)C(=O)c1c[nH]c([C@H](Cc2ccccc2)C[C@H](O)[C@H](Cc2ccccc2)NC(=O)OC(C)(C)C)n1` (some centres not stated), in test [1], the IC50 is 950 nM. In addition, the Ki in test [2] is 53 nM. Regarding `CC(C)c1c[nH]c([C@H](Cc2ccccc2)C[C@H](O)[C@H](Cc2ccccc2)NC(=O)[C@@H](NC=O)C(C)C)n1`, in test [2], the Ki is 4.6 nM.

With `CCC(=O)c1cnc([C@H](Cc2ccccc2)C[C@H](O)[C@H](Cc2ccccc2)NC(=O)OC(C)(C)C)s1`, the Ki in test [2] was found to be 3700 nM.

`CCc1cnc([C@H](Cc2ccccc2)C[C@H](O)[C@H](Cc2ccccc2)NC(=O)OC(C)(C)C)s1`: the Ki in test [2] came out at 2000 nM. For `CCC(CC)C(=O)c1cnc([C@H](Cc2ccccc2)C[C@H](O)[C@H](Cc2ccccc2)NC(=O)OC(C)(C)C)[nH]1`, the IC50 in test [1] amounted to 850 nM. The Ki in test [2] stood at 46 nM. Regarding `CCCc1cnc([C@H](Cc2ccccc2)C[C@H](O)[C@H](Cc2ccccc2)NC(=O)OC(C)(C)C)s1` (stereo in doubt; form 1), the Ki in test [2] is 700 nM. Same read-out and setting: the value for `CCCc1cnc([C@H](Cc2ccccc2)C[C@H](O)[C@H](Cc2ccccc2)NC(=O)OC(C)(C)C)s1` (stereo in doubt; form 2) was 410 nM. `CCCc1cnc([C@H](Cc2ccccc2)C[C@H](O)[C@H](Cc2ccccc2)NC(=O)OC(C)(C)C)s1` (stereo in doubt; form 3): the Ki in test [2] stood at 4600 nM.

Values taken from ChEMBL document CHEMBL1128000, “Synthesis and antiviral activity of a novel class of HIV-1 protease inhibitors containing a heterocyclic P1-P2 amide bond isostere” (Bioorg Med Chem Lett, 1994).
